Experimental data published in US8859557B2, “Substituted oxindole derivatives and their use as vasopressin receptor ligands” (Abbott GmbH & Co. KG, priority 2006, dated 2014).

Legend:
[1] = target: T1, human vasopressin V1b receptor (Homo sapiens, UniProt P47901); experiment: Vasopressin V1b receptor binding assay; conditions: displacement of 3H-AVP, membranes of CHO-K1 cells with human V1b receptor
T1 construct: expressed in transfected cells; host or cells: CHO-K1 (cell line hV1b-3H2_CHO), membrane preparation
T1 sequence (P47901 1-424): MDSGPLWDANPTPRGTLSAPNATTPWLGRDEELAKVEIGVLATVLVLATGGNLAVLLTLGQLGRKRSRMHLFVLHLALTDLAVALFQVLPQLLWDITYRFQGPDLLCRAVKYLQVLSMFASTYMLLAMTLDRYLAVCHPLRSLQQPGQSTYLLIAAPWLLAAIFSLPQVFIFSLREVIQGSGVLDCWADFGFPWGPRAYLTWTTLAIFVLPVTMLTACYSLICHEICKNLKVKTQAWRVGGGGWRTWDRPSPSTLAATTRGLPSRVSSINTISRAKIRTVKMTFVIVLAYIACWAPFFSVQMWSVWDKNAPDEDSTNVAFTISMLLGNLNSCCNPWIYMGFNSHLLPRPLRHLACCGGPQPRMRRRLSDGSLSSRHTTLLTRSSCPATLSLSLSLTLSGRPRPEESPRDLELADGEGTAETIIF
Method: Methods for Determining the Biological Activity Vasopressin V1b Receptor Binding Assay: Substances:
This series of DMSO predilutions was diluted 1:10 with assay buffer. The substance concentration was again diluted 1:5 in the assay mixture (2% DMSO in the mixture).
All determinations were carried out as triplicate determinations.

[2] = target: T2, recombinant human oxytocin receptors (Homo sapiens, UniProt P30559); experiment: Oxytocin receptor binding assay; conditions: selectivity for V1b over oxytocin receptor, quotient of Ki values
T2 construct: expressed in transfected cells; host or cells: HEK-293, transient expression; lysed and homogenized cells
T2 sequence (P30559 1-389): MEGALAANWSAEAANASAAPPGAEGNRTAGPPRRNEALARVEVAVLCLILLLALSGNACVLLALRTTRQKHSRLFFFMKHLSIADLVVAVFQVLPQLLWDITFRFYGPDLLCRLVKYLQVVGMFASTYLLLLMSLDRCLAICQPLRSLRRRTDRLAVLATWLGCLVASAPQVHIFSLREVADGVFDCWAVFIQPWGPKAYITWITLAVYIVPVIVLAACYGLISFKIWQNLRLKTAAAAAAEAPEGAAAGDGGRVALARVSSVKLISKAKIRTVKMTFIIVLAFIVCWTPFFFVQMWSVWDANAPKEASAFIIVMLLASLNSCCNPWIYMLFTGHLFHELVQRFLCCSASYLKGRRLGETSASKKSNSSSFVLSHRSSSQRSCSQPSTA
Method: Oxytocin Receptor Binding Assay
Confluent HEK-293 cells with transiently expressing recombinant human oxytocin receptors were centrifuged at 750×g and at room temperature for 5 minutes. The residue was taken up in ice-cold lysis buffer (50 mM Tris-HCl, 10% glycerol, pH 7.4 and Roche Complete Protease Inhibitor) and subjected to an osmotic shock at 4° C. for 20 minutes. The lyzed cells were then centrifuged at 750×g and at 4° C. for 20 minutes, the residue was taken up in incubation buffer, and aliquots of 10^7 cells/ml were prepared. The aliquots were frozen at −80° C. until used.
On the day of the experiment, the cells were thawed, diluted with incubation buffer and homogenized using a Multipette Combitip (Eppendorf, Hamburg). […] The nonspecific binding was determined with 10^−6 M oxytocin (Bachem AG, H2510). Determinations in triplicate were set up. Bound and free radioligand were separated by filtration under vacuum with Whatman GF/B glass fibre filters using a Skatron cell harvester 7000. The bound radioactivity was determined by liquid scintillation measurement in a Tricarb beta counter, model 2000 or 2200CA (Packard).

[3] = Determination of the microsomal half-life / microsomal clearance (human); type: in vitro ADME; conditions: pH 7.4; human liver microsomes, 0.5 μM test substance, 0.25 mg microsomal protein/ml; read-out: Human Mikrosomal Clearance
Method: The metabolic stability of a compound can be determined, for example, by incubating a solution of this compound with liver microsomes from particular species (for example rat, dog or human) and determining the half-life of the compound under these conditions (RS Obach, Curr Opin Drug Discov Devel. 2001, 4, 36-44). It is possible to conclude from an observed larger half-life that the metabolic stability of the compound is improved. The stability in the presence of human liver microsomes is of particular interest since it makes it possible to predict the metabolic degradation of the compound in the human liver. Compounds with increased metabolic stability (determined in the liver microsome test) are therefore probably also degraded more slowly in the liver. The slower metabolic degradation in the liver can lead to higher and/or longer-lasting concentrations (effective levels) of the compound in the body, so that the elimination half-life of the compounds according to the invention is increased. Increased and/or longer-lasting effective levels may lead to a better efficacy of the compound in the treatment or prophylaxis of various vasopressin-dependent diseases. An improved metabolic stability may additionally lead to an increased bioavailability after oral administration, because the compound is subjected, after being absorbed in the intestine, to less metabolic degradation in the liver (so-called first pass effect). An increased oral bioavailability may, because the concentration (effective level) of the compound is increased, lead to a better efficacy of the compound after oral administration.
Determination of the Microsomal Half-Life:
The metabolic stability of the compounds of the invention was determined in the following assay.
The test substances are incubated in a concentration of 0.5 μM as follows:
0.5 μM test substance is preincubated together with liver microsomes of various species (rat, human or other species) (0.25 mg of microsomal protein/ml) in 0.05M potassium phosphate buffer pH 7.4 in microtitre plates at 37° C. for 5 min. The reaction is started by adding NADPH (1 mg/ml). 50 μl aliquots are taken after 0, 5, 10, 15, 20 and 30 min, and the reaction is stopped immediately with the same volume of acetonitrile and cooled down. The samples are frozen until analyzed. Using MSMS, the remaining concentration of undegraded test substance is determined. From the […] of the test substance signal/time unit curve, the half-life (T½) is determined, where the half-life of the test substance can be calculated, assuming first order kinetics, from the decrease in the concentration of the compound with time. The microsomal clearance (mCl) is calculated as mCl=In2/T½/(content of microsomal protein in mg/ml)×1000 [ml/min/mg] (modified according to the literature references: Di, The Society for Biomoleculaur Screening, 2003, 453-462; Obach, DMD, 1999 vol 27. N 11, 1350-1359).

[4] = target: human vasopressin V1a receptor (Homo sapiens, UniProt P37288); experiment: Vasopressin V1a receptor binding assay; conditions: selectivity for V1b over V1a, quotient of Ki values
Chain of human vasopressin V1a receptor (P37288 whole entry): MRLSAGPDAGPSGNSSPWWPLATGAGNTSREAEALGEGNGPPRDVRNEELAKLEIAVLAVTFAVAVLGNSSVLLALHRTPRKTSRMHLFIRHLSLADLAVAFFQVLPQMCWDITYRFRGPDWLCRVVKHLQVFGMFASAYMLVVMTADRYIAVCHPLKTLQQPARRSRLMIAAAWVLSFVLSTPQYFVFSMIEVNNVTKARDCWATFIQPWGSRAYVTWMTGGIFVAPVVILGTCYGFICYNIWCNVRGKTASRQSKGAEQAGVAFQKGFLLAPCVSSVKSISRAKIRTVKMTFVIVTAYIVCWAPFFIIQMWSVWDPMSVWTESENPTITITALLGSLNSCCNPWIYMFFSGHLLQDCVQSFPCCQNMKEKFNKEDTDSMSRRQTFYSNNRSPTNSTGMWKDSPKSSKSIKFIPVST

Ki [1] | Ki(h-OT)/Ki(h-V1b) [2] | microsomal CLint at 0.5 μM [3] | Ki(h-V1a)/Ki(h-V1b) [4] | SMILES
< 10 nM | +++ (>50) | 60 to 120 µL/min/mg | +++ (>100) | CCOc1ncccc1C1(NC(=O)N2CCC(N3CCN(C)CC3)CC2)C(=O)N(S(=O)(=O)c2ccc(OC)cc2OC)c2ccc(C#N)cc21 (racemic) [Example 31, N-[5-Cyano-1-[(2,4-dimethoxyphenyl)sulphonyl]-3-(2-ethoxypyridin-3-yl)-2-oxo-2,3-dihydro-1H-indol-3-yl]-4-(4-methylpiperazin-1-yl)piperidine-1-carboxamide]
< 10 nM | +++ (>50) | < 60 µL/min/mg | +++ (>100) | CCOc1ncccc1C1(NC(=O)N2CCC(N3CCN(C)CC3)CC2)C(=O)N(S(=O)(=O)c2ccc(OC)cc2OC)c2ccc(C#N)cc21 (single isomer, unassigned) [Example 31B, (−)-N-[5-Cyano-1-[(2,4-dimethoxyphenyl)sulphonyl]-3-(2-ethoxypyridin-3-yl)-2-oxo-2,3-dihydro-1H-indol-3-yl]-4-(4-methylpiperazin-1-yl)piperidine-1-carboxamide]
< 10 nM | +++ (>50) | 60 to 120 µL/min/mg | + (15-50) | CCOc1ncccc1C1(NC(=O)N2CCC(N3CCN(CC)CC3)CC2)C(=O)N(S(=O)(=O)c2ccccc2)c2ccc(C#N)cc21 (single isomer, unassigned) [Example 40B, (−)-N-[5-Cyano-3-(2-ethoxypyridin-3-yl)-2-oxo-1-(phenylsulphonyl)-2,3-dihydro-1H-indol-3-yl]-4-(4-ethylpiperazin-1-yl)piperidin-1-carboxamide]

The next lines start with the molecule.

SMILES | Ki [1] | Ki(h-OT)/Ki(h-V1b) [2] | microsomal CLint at 0.5 μM [3] | Ki(h-V1a)/Ki(h-V1b) [4]
CCOc1ncccc1[C@]1(NC(=O)N2CCN(C3CCN(C)CC3)CC2)C(=O)N(S(=O)(=O)c2ccc(OC)cc2OC)c2ccc(C#N)cc21 [Example 1B, (−)-N-[5-Cyano-1-[(2,4-dimethoxyphenyl)sulphonyl]-3-(2-ethoxypyridin-3-yl)-2-oxo-2,3-dihydro-1H-indol-3-yl]-4-(1-methylpiperidin-4-yl)piperazine-1-carboxamide] | < 10 nM | +++ (>50) | < 60 µL/min/mg | +++ (>100)
CCOc1ncccc1C1(NC(=O)N2CCN(C3CCN(C)CC3)CC2)C(=O)N(S(=O)(=O)c2ccccc2)c2ccc(C#N)cc21 (racemic) [Example 4, N-[5-Cyano-3-(2-ethoxypyridin-3-yl)-2-oxo-1-(phenylsulphonyl)-2,3-dihydro-1H-indol-3-yl]-4-(1-methylpiperidin-4-yl)piperazine-1-carboxamide] | 10 to 50 nM | ++ (>25-50) | < 60 µL/min/mg | ++ (>50-100)
CCOc1ncccc1C1(NC(=O)N2CCN(C3CCN(C)CC3)CC2)C(=O)N(S(=O)(=O)c2ccc(OC)cc2OC)c2ccc(C#N)cc21 (racemic) [Example 1, N-[5-Cyano-1-[(2,4-dimethoxyphenyl)sulphonyl]-3-(2-ethoxypyridin-3-yl)-2-oxo-2,3-dihydro-1H-indol-3-yl]-4-(1-methylpiperidin-4-yl)piperazine-1-carboxamide] | < 10 nM | +++ (>50) | < 60 µL/min/mg | +++ (>100)
CCOc1ncccc1C1(NC(=O)N2CCN(C3CCN(CC)CC3)CC2)C(=O)N(S(=O)(=O)c2ccc(OC)cc2OC)c2ccc(C#N)cc21.O=C(O)C(F)(F)F (single isomer, unassigned) [Example 7B, (−)-N-[5-Cyano-1-[(2,4-dimethoxyphenyl)sulphonyl]-3-(2-ethoxypyridin-3-yl)-2-oxo-2,3-dihydro-1H-indol-3-yl]-4-(1-ethylpiperidin-4-yl)piperazine-1-carboxamide trifluoroacetate] | < 10 nM | +++ (>50) | < 60 µL/min/mg | +++ (>100)
